Results reported in the supplement of paper PMC10627819.

Key:
Test in all cases: fitness (endpoint OD595 vs no drug) (fraction); higher = more growth
S. aureus Newman = test system: S. aureus Newman
Procedure, shortened: (§1)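 Cultures at OD595 0.01 were dispensed into 384-well plates in TSB, LB Lennox or CY and incubated at 37 °C. Every 30 min for 14 h, OD595 was read and corrected by the first reading. Fitness is the optical density at entry into stationary phase relative to the robust mean of no-drug control wells, capped at 1.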

B. subtilis 168 = test system: B. subtilis 168
Procedure, shortened: as §1

S. pneumoniae D39V = test system: S. pneumoniae D39V
Procedure, shortened: as §1

CO/N=C(\C(=O)N[C@@H]1C(=O)N2C(C(=O)O)=C(COC(C)=O)CS[C@H]12)c1csc(N)n1 [Cefotaxime] + CC1(C)S[C@@H]2[C@H](NC(=O)Cc3ccccc3)C(=O)N2[C@H]1C(=O)O [Penicillin G]
fitness (S. aureus Newman; first compound 0.078 µg/mL, partner 0.0195 µg/mL): 0.677
fitness (S. aureus Newman; first compound 0.078 µg/mL, partner 0.039 µg/mL): 0.644
fitness (S. aureus Newman; first compound 0.078 µg/mL, partner 0.078 µg/mL): 0.693
fitness (S. aureus Newman; first compound 0.156 µg/mL, partner 0.0195 µg/mL): 0.506
fitness (S. aureus Newman; first compound 0.156 µg/mL, partner 0.039 µg/mL): 0.49
fitness (S. aureus Newman; first compound 0.156 µg/mL, partner 0.078 µg/mL): 0.541
fitness (S. aureus Newman; first compound 0.312 µg/mL, partner 0.0195 µg/mL): 0.297
fitness (S. aureus Newman; first compound 0.312 µg/mL, partner 0.039 µg/mL): 0.288
fitness (S. aureus Newman; first compound 0.312 µg/mL, partner 0.078 µg/mL): 0.301
fitness (S. aureus Newman; first compound 0.625 µg/mL, partner 0.0195 µg/mL, one replicate): 0.0231
fitness (S. aureus Newman; first compound 0.625 µg/mL, partner 0.039 µg/mL, one replicate): 0.0366
fitness (S. aureus Newman; first compound 0.625 µg/mL, partner 0.078 µg/mL, one replicate): 0.0525
fitness (S. aureus Newman; first compound 1.25 µg/mL, partner 0.0195 µg/mL, one replicate): 0.0448
fitness (S. aureus Newman; first compound 1.25 µg/mL, partner 0.039 µg/mL, one replicate): 0.0335
fitness (S. aureus Newman; first compound 1.25 µg/mL, partner 0.078 µg/mL, one replicate): 0.0319
fitness (S. aureus Newman; first compound 2.5 µg/mL, partner 0.0195 µg/mL, one replicate): 0.071
fitness (S. aureus Newman; first compound 2.5 µg/mL, partner 0.039 µg/mL, one replicate): 0.0438
fitness (S. aureus Newman; first compound 2.5 µg/mL, partner 0.078 µg/mL, one replicate): 0.0774

CO/N=C(\C(=O)N[C@@H]1C(=O)N2C(C(=O)O)=C(COC(N)=O)CS[C@H]12)c1ccco1 [Cefuroxime] + CC1(C)S[C@@H]2[C@H](NC(=O)Cc3ccccc3)C(=O)N2[C@H]1C(=O)O [Penicillin G]
fitness (S. aureus Newman; first compound 0.04875 µg/mL, partner 0.0195 µg/mL, one replicate): 0.873
fitness (S. aureus Newman; first compound 0.04875 µg/mL, partner 0.039 µg/mL, one replicate): 0.959
fitness (S. aureus Newman; first compound 0.04875 µg/mL, partner 0.078 µg/mL, one replicate): 0.898
fitness (S. aureus Newman; first compound 0.0975 µg/mL, partner 0.0195 µg/mL, one replicate): 0.849
fitness (S. aureus Newman; first compound 0.0975 µg/mL, partner 0.039 µg/mL, one replicate): 0.831
fitness (S. aureus Newman; first compound 0.0975 µg/mL, partner 0.078 µg/mL, one replicate): 0.888
fitness (S. aureus Newman; first compound 0.195 µg/mL, partner 0.0195 µg/mL, one replicate): 0.889
fitness (S. aureus Newman; first compound 0.195 µg/mL, partner 0.039 µg/mL, one replicate): 0.907
fitness (S. aureus Newman; first compound 0.195 µg/mL, partner 0.078 µg/mL, one replicate): 0.906

CO/N=C(\C(=O)N[C@@H]1C(=O)N2C(C(=O)O)=C(COC(N)=O)CS[C@H]12)c1ccco1 [Cefuroxime] + CO/N=C(\C(=O)N[C@@H]1C(=O)N2C(C(=O)[O-])=C(C[N+]3(C)CCCC3)CS[C@H]12)c1csc(N)n1 [Cefepime]
fitness (S. aureus Newman; first compound 0.04875 µg/mL, partner 0.125 µg/mL, one replicate): 0.984
fitness (S. aureus Newman; first compound 0.04875 µg/mL, partner 0.25 µg/mL, one replicate): 0.871
fitness (S. aureus Newman; first compound 0.04875 µg/mL, partner 0.5 µg/mL, one replicate): 0.88
fitness (S. aureus Newman; first compound 0.0975 µg/mL, partner 0.125 µg/mL, one replicate): 0.841
fitness (S. aureus Newman; first compound 0.0975 µg/mL, partner 0.25 µg/mL, one replicate): 0.821
fitness (S. aureus Newman; first compound 0.0975 µg/mL, partner 0.5 µg/mL, one replicate): 0.731
fitness (S. aureus Newman; first compound 0.195 µg/mL, partner 0.125 µg/mL, one replicate): 0.925
fitness (S. aureus Newman; first compound 0.195 µg/mL, partner 0.25 µg/mL, one replicate): 0.922
fitness (S. aureus Newman; first compound 0.195 µg/mL, partner 0.5 µg/mL, one replicate): 0.864

CO/N=C(\C(=O)N[C@@H]1C(=O)N2C(C(=O)O)=C(COC(N)=O)CS[C@H]12)c1ccco1 [Cefuroxime] + CO[C@@]12[C@H](COC(N)=O)C3=C(C(=O)C(C)=C(N)C3=O)N1C[C@@H]1N[C@@H]12 [Mitomycin C]
fitness (S. aureus Newman; first compound 0.04875 µg/mL, partner 0.0156 µg/mL, one replicate): 0.6
fitness (S. aureus Newman; first compound 0.04875 µg/mL, partner 0.0312 µg/mL, one replicate): 0.35
fitness (S. aureus Newman; first compound 0.04875 µg/mL, partner 0.0625 µg/mL, one replicate): 0.537
fitness (S. aureus Newman; first compound 0.0975 µg/mL, partner 0.0156 µg/mL, one replicate): 0.597
fitness (S. aureus Newman; first compound 0.0975 µg/mL, partner 0.0312 µg/mL, one replicate): 0.338
fitness (S. aureus Newman; first compound 0.0975 µg/mL, partner 0.0625 µg/mL, one replicate): 0.488
fitness (S. aureus Newman; first compound 0.195 µg/mL, partner 0.0156 µg/mL, one replicate): 0.653
fitness (S. aureus Newman; first compound 0.195 µg/mL, partner 0.0312 µg/mL, one replicate): 0.332
fitness (S. aureus Newman; first compound 0.195 µg/mL, partner 0.0625 µg/mL, one replicate): 0.413

CN(C)[C@@H]1C(O)=C(C(N)=O)C(=O)[C@@]2(O)C(O)=C3C(=O)c4c(O)ccc(Cl)c4[C@@](C)(O)[C@H]3C[C@@H]12 [Chlortetracycline] + CC1=C(C(=O)O)N2C(=O)[C@@H](NC(=O)[C@H](N)c3ccccc3)[C@H]2SC1 [Cephalexin]
fitness (B. subtilis 168; first compound 0.0475 µg/mL, partner 0.125 µg/mL): 0.922
fitness (B. subtilis 168; first compound 0.0475 µg/mL, partner 0.25 µg/mL): 0.918
fitness (B. subtilis 168; first compound 0.0475 µg/mL, partner 0.5 µg/mL): 0.852
fitness (B. subtilis 168; first compound 0.0475 µg/mL, partner 1 µg/mL, one replicate): 0.936
fitness (B. subtilis 168; first compound 0.095 µg/mL, partner 0.125 µg/mL): 0.708
fitness (B. subtilis 168; first compound 0.095 µg/mL, partner 0.25 µg/mL): 0.818
fitness (B. subtilis 168; first compound 0.095 µg/mL, partner 0.5 µg/mL): 0.811
fitness (B. subtilis 168; first compound 0.095 µg/mL, partner 1 µg/mL, one replicate): 0.827
fitness (B. subtilis 168; first compound 0.19 µg/mL, partner 0.125 µg/mL): 0.437
fitness (B. subtilis 168; first compound 0.19 µg/mL, partner 0.25 µg/mL): 0.534
fitness (B. subtilis 168; first compound 0.19 µg/mL, partner 0.5 µg/mL): 0.551
fitness (B. subtilis 168; first compound 0.19 µg/mL, partner 1 µg/mL, one replicate): 0.606
fitness (S. pneumoniae D39V; first compound 0.012 µg/mL, partner 0.125 µg/mL, one replicate): 0.933
fitness (S. pneumoniae D39V; first compound 0.012 µg/mL, partner 0.25 µg/mL, one replicate): 0.872
fitness (S. pneumoniae D39V; first compound 0.012 µg/mL, partner 0.5 µg/mL, one replicate): 0.883
fitness (S. pneumoniae D39V; first compound 0.024 µg/mL, partner 0.125 µg/mL, one replicate): 0.86
fitness (S. pneumoniae D39V; first compound 0.024 µg/mL, partner 0.25 µg/mL, one replicate): 0.809
fitness (S. pneumoniae D39V; first compound 0.024 µg/mL, partner 0.5 µg/mL, one replicate): 0.84
fitness (S. pneumoniae D39V; first compound 0.048 µg/mL, partner 0.125 µg/mL, one replicate): 0.797
fitness (S. pneumoniae D39V; first compound 0.048 µg/mL, partner 0.25 µg/mL, one replicate): 0.762
fitness (S. pneumoniae D39V; first compound 0.048 µg/mL, partner 0.5 µg/mL, one replicate): 0.706
fitness (S. pneumoniae D39V; first compound 0.375 µg/mL, partner 1 µg/mL): 0.0846
fitness (S. pneumoniae D39V; first compound 0.375 µg/mL, partner 2 µg/mL): 0.0341
fitness (S. pneumoniae D39V; first compound 0.375 µg/mL, partner 4 µg/mL): 0.0429
fitness (S. pneumoniae D39V; first compound 0.75 µg/mL, partner 1 µg/mL): 0.0412
fitness (S. pneumoniae D39V; first compound 0.75 µg/mL, partner 2 µg/mL): 0.0584
fitness (S. pneumoniae D39V; first compound 0.75 µg/mL, partner 4 µg/mL): 0.0665
fitness (S. pneumoniae D39V; first compound 1.5 µg/mL, partner 1 µg/mL): 0.0388
fitness (S. pneumoniae D39V; first compound 1.5 µg/mL, partner 2 µg/mL): 0.0428
fitness (S. pneumoniae D39V; first compound 1.5 µg/mL, partner 4 µg/mL): 0.0379

CN(C)[C@@H]1C(O)=C(C(N)=O)C(=O)[C@@]2(O)C(O)=C3C(=O)c4c(O)ccc(Cl)c4[C@@](C)(O)[C@H]3C[C@@H]12 [Chlortetracycline] + CC(C1CCC(C(O1)OC2C(CC(C(C2O)OC3C(C(C(CO3)(C)O)NC)O)N)N)N)NC [Gentamicin]
fitness (B. subtilis 168; first compound 0.0475 µg/mL, partner 0.0625 µg/mL, main component drawn): 0.917
fitness (B. subtilis 168; first compound 0.095 µg/mL, partner 0.0625 µg/mL, main component drawn): 0.778
fitness (B. subtilis 168; first compound 0.19 µg/mL, partner 0.25 µg/mL, main component drawn): 0.0795
fitness (S. pneumoniae D39V; first compound 0.012 µg/mL, partner 2 µg/mL, main component drawn): 0.8
fitness (S. pneumoniae D39V; first compound 0.012 µg/mL, partner 4 µg/mL, main component drawn): 0.752
fitness (S. pneumoniae D39V; first compound 0.012 µg/mL, partner 8 µg/mL, main component drawn): 0.706
fitness (S. pneumoniae D39V; first compound 0.024 µg/mL, partner 2 µg/mL, main component drawn): 0.393
fitness (S. pneumoniae D39V; first compound 0.024 µg/mL, partner 4 µg/mL, main component drawn): 0.392
fitness (S. pneumoniae D39V; first compound 0.024 µg/mL, partner 8 µg/mL, main component drawn): 0.389
fitness (S. pneumoniae D39V; first compound 0.048 µg/mL, partner 2 µg/mL, main component drawn): 0.255
fitness (S. pneumoniae D39V; first compound 0.048 µg/mL, partner 4 µg/mL, main component drawn): 0.184
fitness (S. pneumoniae D39V; first compound 0.048 µg/mL, partner 8 µg/mL, main component drawn): 0.187
fitness (S. pneumoniae D39V; first compound 0.375 µg/mL, partner 2 µg/mL, main component drawn): 0.0667
fitness (S. pneumoniae D39V; first compound 0.375 µg/mL, partner 4 µg/mL, main component drawn): 0.0598
fitness (S. pneumoniae D39V; first compound 0.375 µg/mL, partner 8 µg/mL, main component drawn): 0.0694
fitness (S. pneumoniae D39V; first compound 0.75 µg/mL, partner 2 µg/mL, main component drawn): 0.0603
fitness (S. pneumoniae D39V; first compound 0.75 µg/mL, partner 4 µg/mL, main component drawn): 0.0825
fitness (S. pneumoniae D39V; first compound 0.75 µg/mL, partner 8 µg/mL, main component drawn): 0.0967
fitness (S. pneumoniae D39V; first compound 1.5 µg/mL, partner 2 µg/mL, main component drawn): 0.0704
fitness (S. pneumoniae D39V; first compound 1.5 µg/mL, partner 4 µg/mL, main component drawn): 0.0878
fitness (S. pneumoniae D39V; first compound 1.5 µg/mL, partner 8 µg/mL, main component drawn): 0.0614
